# Measured values published in PubChem BioAssay (NCI).
#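 These data come from cells grown in 96-well plates and exposed to compound for 48 hours at five concentrations. At the GI50, growth is halved. TGI marks complete inhibition of growth.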
# Columns and labels:
# Test in all cases: DTP human tumour cell line panel, 48 h
# K-562 leukemia = tested on: K-562 leukemia
# HS 578T breast = tested on: HS 578T breast
# RXF 393 renal = tested on: RXF 393 renal
# SK-OV-3 ovarian = tested on: SK-OV-3 ovarian
# NCI/ADR-RES ovarian = tested on: NCI/ADR-RES ovarian
# MDA-MB-435 = tested on: MDA-MB-435
# NCI-H522 lung = tested on: NCI-H522 lung
# SF-268 CNS = tested on: SF-268 CNS
# MOLT-4 leukemia = tested on: MOLT-4 leukemia
# HT29 colon = tested on: HT29 colon
# SW-620 colon = tested on: SW-620 colon
# A498 renal = tested on: A498 renal
# ACHN renal = tested on: ACHN renal
# HL-60(TB) leukemia = tested on: HL-60(TB) leukemia
# UACC-62 melanoma = tested on: UACC-62 melanoma
# CAKI-1 renal = tested on: CAKI-1 renal
# HCT-116 colon = tested on: HCT-116 colon
# COLO 205 colon = tested on: COLO 205 colon
# HOP-62 NSCLC = tested on: HOP-62 NSCLC
# OVCAR-5 ovarian = tested on: OVCAR-5 ovarian
# SK-MEL-28 melanoma = tested on: SK-MEL-28 melanoma
# BT-549 breast = tested on: BT-549 breast
# IGROV1 ovarian = tested on: IGROV1 ovarian
# A549 NSCLC = tested on: A549 NSCLC
# MALME-3M melanoma = tested on: MALME-3M melanoma
# HCT-15 colon = tested on: HCT-15 colon
# TK-10 renal = tested on: TK-10 renal
# SF-539 CNS = tested on: SF-539 CNS
# 786-0 renal = tested on: 786-0 renal
# T-47D breast = tested on: T-47D breast
# DU-145 prostate = tested on: DU-145 prostate
# SR leukemia = tested on: SR leukemia
# OVCAR-8 ovarian = tested on: OVCAR-8 ovarian
# SF-295 CNS = tested on: SF-295 CNS
# NCI-H460 lung = tested on: NCI-H460 lung
# KM12 colon = tested on: KM12 colon
# HCC-2998 colon = tested on: HCC-2998 colon
# NCI-H226 lung = tested on: NCI-H226 lung
# RPMI-8226 leukemia = tested on: RPMI-8226 leukemia
# U251 CNS = tested on: U251 CNS
# SN12C renal = tested on: SN12C renal
# UACC-257 melanoma = tested on: UACC-257 melanoma
# UO-31 renal = tested on: UO-31 renal
# OVCAR-4 ovarian = tested on: OVCAR-4 ovarian
# OVCAR-3 ovarian = tested on: OVCAR-3 ovarian
# SNB-19 CNS = tested on: SNB-19 CNS
# MDA-MB-231 breast = tested on: MDA-MB-231 breast
# SNB-75 CNS = tested on: SNB-75 CNS
# M14 melanoma = tested on: M14 melanoma
# SK-MEL-5 melanoma = tested on: SK-MEL-5 melanoma
# MCF7 breast = tested on: MCF7 breast
# PC-3 prostate = tested on: PC-3 prostate
# CCRF-CEM leukemia = tested on: CCRF-CEM leukemia
# NCI-H23 lung = tested on: NCI-H23 lung
structure (smiles),measurement,setting,value
COc1cc(-c2cc(-c3nc4ccc(F)cc4[nH]3)[nH]n2)cc(OC)c1OC,GI50,K-562 leukemia,2.87 µM
same,TGI,K-562 leukemia,32.7 µM
same,GI50,HS 578T breast,3.32 µM
same,TGI,HS 578T breast,> 100 µM
same,GI50,RXF 393 renal,1.85 µM
same,TGI,RXF 393 renal,9.36 µM
same,GI50,SK-OV-3 ovarian,3.32 µM
same,TGI,SK-OV-3 ovarian,9.59 µM
same,GI50,NCI/ADR-RES ovarian,3.19 µM
same,TGI,NCI/ADR-RES ovarian,9.2 µM
same,GI50,MDA-MB-435,2.12 µM
same,TGI,MDA-MB-435,5.44 µM
same,GI50,NCI-H522 lung,1.73 µM
same,TGI,NCI-H522 lung,5.15 µM
same,GI50,SF-268 CNS,3.23 µM
same,TGI,SF-268 CNS,11.2 µM
same,GI50,MOLT-4 leukemia,2.1 µM
same,TGI,MOLT-4 leukemia,4.82 µM
same,GI50,HT29 colon,4.4 µM
same,TGI,HT29 colon,28.3 µM
same,GI50,SW-620 colon,4.11 µM
same,TGI,SW-620 colon,20.5 µM
same,GI50,A498 renal,1.86 µM
same,TGI,A498 renal,11.9 µM
same,GI50,ACHN renal,2.54 µM
same,TGI,ACHN renal,11.6 µM
same,GI50,HL-60(TB) leukemia,2.52 µM
same,TGI,HL-60(TB) leukemia,7.71 µM
same,GI50,UACC-62 melanoma,1.8 µM
same,TGI,UACC-62 melanoma,4.82 µM
same,GI50,CAKI-1 renal,1.8 µM
same,TGI,CAKI-1 renal,6.84 µM
same,GI50,HCT-116 colon,2.81 µM
same,TGI,HCT-116 colon,10.4 µM
same,GI50,COLO 205 colon,3.26 µM
same,TGI,COLO 205 colon,10.3 µM
same,GI50,HOP-62 NSCLC,2.37 µM
same,TGI,HOP-62 NSCLC,8.05 µM
same,GI50,OVCAR-5 ovarian,11.1 µM
same,TGI,OVCAR-5 ovarian,24 µM
same,GI50,SK-MEL-28 melanoma,2.39 µM
same,TGI,SK-MEL-28 melanoma,6.52 µM
same,GI50,BT-549 breast,1.84 µM
same,TGI,BT-549 breast,6.28 µM
same,GI50,IGROV1 ovarian,2.27 µM
same,TGI,IGROV1 ovarian,10.7 µM
same,GI50,A549 NSCLC,2.46 µM
same,TGI,A549 NSCLC,8.81 µM
same,GI50,MALME-3M melanoma,1.96 µM
same,TGI,MALME-3M melanoma,8.44 µM
same,GI50,HCT-15 colon,2.79 µM
same,TGI,HCT-15 colon,10.8 µM
same,GI50,TK-10 renal,4.39 µM
same,TGI,TK-10 renal,16 µM
same,GI50,SF-539 CNS,3.58 µM
same,TGI,SF-539 CNS,14.4 µM
same,GI50,786-0 renal,3.97 µM
same,TGI,786-0 renal,14.6 µM
same,GI50,T-47D breast,0.764 µM
same,TGI,T-47D breast,3.09 µM
same,GI50,DU-145 prostate,3.17 µM
same,TGI,DU-145 prostate,13 µM
same,GI50,SR leukemia,3.45 µM
same,TGI,SR leukemia,32 µM
same,GI50,OVCAR-8 ovarian,1.99 µM
same,TGI,OVCAR-8 ovarian,5.03 µM
same,GI50,SF-295 CNS,2.51 µM
same,TGI,SF-295 CNS,9.67 µM
same,GI50,NCI-H460 lung,2.9 µM
same,TGI,NCI-H460 lung,11.8 µM
same,GI50,KM12 colon,2.29 µM
same,TGI,KM12 colon,6.23 µM
same,GI50,HCC-2998 colon,5.96 µM
same,TGI,HCC-2998 colon,18.7 µM
same,GI50,NCI-H226 lung,1.28 µM
same,TGI,NCI-H226 lung,4.31 µM
same,GI50,RPMI-8226 leukemia,1.24 µM
same,TGI,RPMI-8226 leukemia,3.26 µM
same,GI50,U251 CNS,2.61 µM
same,TGI,U251 CNS,12 µM
same,GI50,SN12C renal,2.92 µM
same,TGI,SN12C renal,12.9 µM
same,GI50,UACC-257 melanoma,2.15 µM
same,TGI,UACC-257 melanoma,5.9 µM
same,GI50,UO-31 renal,1.74 µM
same,TGI,UO-31 renal,6.97 µM
same,GI50,OVCAR-4 ovarian,1.29 µM
same,TGI,OVCAR-4 ovarian,4.27 µM
same,GI50,OVCAR-3 ovarian,2.95 µM
same,TGI,OVCAR-3 ovarian,10 µM
same,GI50,SNB-19 CNS,5.47 µM
same,TGI,SNB-19 CNS,18.8 µM
same,GI50,MDA-MB-231 breast,3.05 µM
same,TGI,MDA-MB-231 breast,15.2 µM
same,GI50,SNB-75 CNS,1.76 µM
same,TGI,SNB-75 CNS,5.54 µM
same,GI50,M14 melanoma,2.36 µM
same,TGI,M14 melanoma,7.62 µM
same,GI50,SK-MEL-5 melanoma,1.39 µM
same,TGI,SK-MEL-5 melanoma,2.8 µM
same,GI50,MCF7 breast,2.11 µM
same,TGI,MCF7 breast,6.37 µM
same,GI50,PC-3 prostate,1.63 µM
same,TGI,PC-3 prostate,5.84 µM
same,GI50,CCRF-CEM leukemia,1.98 µM
same,TGI,CCRF-CEM leukemia,5.74 µM
same,GI50,NCI-H23 lung,2.35 µM
same,TGI,NCI-H23 lung,6.89 µM
